Experimental data from the NIST ThermoML archive (doi:10.1016/j.jct.2012.05.012).

How the values were obtained:
[1] = wn = mass fraction of the nth substance listed; conditions: for surface tension liquid-gas: Maximal bubble pressure; for mass density: 101 kPa, Liquid, Vibrating tube method
[2] = refractive index (Na D-line) (dimensionless); wn = mass fraction of the nth substance listed; conditions: 101 kPa, Liquid, Standard Abbe refractometry

CCCCn1cc[n+](C)c1.NCC(=O)[O-] [1-butyl-3-methylimidazolium glycinate] + O
Conditions	mass density [kg/m3]	refractive index	surface tension liquid-gas [mN/m]
[1], 283.15 K, w2 = 0.0081	1121.2	–	45.7
[1], 283.15 K, w2 = 0.0091	–	–	45.9
[1], 283.15 K, w2 = 0.0102	–	–	46.1
[1], 283.15 K, w2 = 0.0118	–	–	46.3
[1], 283.15 K, w2 = 0.0129	1121.5	–	–
[1], 283.15 K, w2 = 0.0131	–	–	46.6
[1], 283.15 K, w2 = 0.018	1121.8	–	–
[1], 283.15 K, w2 = 0.0234	1122.2	–	–
[1], 283.15 K, w2 = 0.0293	1122.6	–	–
[1], 288.15 K, w2 = 0.0081	1118	–	45.5
[1], 288.15 K, w2 = 0.0091	–	–	45.7
[1], 288.15 K, w2 = 0.0102	–	–	45.9
[1], 288.15 K, w2 = 0.0118	–	–	46.2
[1], 288.15 K, w2 = 0.0129	1118.3	–	–
[1], 288.15 K, w2 = 0.0131	–	–	46.4
[1], 288.15 K, w2 = 0.018	1118.7	–	–
[1], 288.15 K, w2 = 0.0234	1119.1	–	–
[1], 288.15 K, w2 = 0.0293	1119.5	–	–
[1], 293.15 K, w2 = 0.0081	1114.8	–	45.3
[1], 293.15 K, w2 = 0.0091	–	–	45.5
[1], 293.15 K, w2 = 0.0102	–	–	45.7
[1], 293.15 K, w2 = 0.0118	–	–	46
[1], 293.15 K, w2 = 0.0129	1115.1	–	–
[1], 293.15 K, w2 = 0.0131	–	–	46.2
[1], 293.15 K, w2 = 0.018	1115.5	–	–
[1], 293.15 K, w2 = 0.0234	1115.9	–	–
[1], 293.15 K, w2 = 0.0293	1116.3	–	–
[1], 298.15 K, w2 = 0.0081	1111.5	–	45
[1], 298.15 K, w2 = 0.0091	–	–	45.2
[1], 298.15 K, w2 = 0.0102	–	–	45.4
[1], 298.15 K, w2 = 0.0118	–	–	45.7
[1], 298.15 K, w2 = 0.0129	1111.9	–	–
[1], 298.15 K, w2 = 0.0131	–	–	45.9
[1], 298.15 K, w2 = 0.018	1112.3	–	–
[1], 298.15 K, w2 = 0.0234	1112.7	–	–
[1], 298.15 K, w2 = 0.0293	1113.1	–	–
[1], 303.15 K, w2 = 0.0081	1108.4	–	44.8
[1], 303.15 K, w2 = 0.0091	–	–	45
[1], 303.15 K, w2 = 0.0102	–	–	45.2
[1], 303.15 K, w2 = 0.0118	–	–	45.5
[1], 303.15 K, w2 = 0.0129	1108.9	–	–
[1], 303.15 K, w2 = 0.0131	–	–	45.8
[1], 303.15 K, w2 = 0.018	1109.3	–	–
[1], 303.15 K, w2 = 0.0234	1109.7	–	–
[1], 303.15 K, w2 = 0.0293	1110.2	–	–
[1], 308.15 K, w2 = 0.0081	1105.4	–	44.5
[1], 308.15 K, w2 = 0.0091	–	–	44.7
[1], 308.15 K, w2 = 0.0102	–	–	44.9
[1], 308.15 K, w2 = 0.0118	–	–	45.2
[1], 308.15 K, w2 = 0.0129	1105.7	–	–
[1], 308.15 K, w2 = 0.0131	–	–	45.5
[1], 308.15 K, w2 = 0.018	1106.2	–	–
[1], 308.15 K, w2 = 0.0234	1106.6	–	–
[1], 308.15 K, w2 = 0.0293	1107.1	–	–
[1], 313.15 K, w2 = 0.0081	1102.2	–	44.2
[1], 313.15 K, w2 = 0.0091	–	–	44.4
[1], 313.15 K, w2 = 0.0102	–	–	44.6
[1], 313.15 K, w2 = 0.0118	–	–	44.9
[1], 313.15 K, w2 = 0.0129	1102.6	–	–
[1], 313.15 K, w2 = 0.0131	–	–	45.2
[1], 313.15 K, w2 = 0.018	1103	–	–
[1], 313.15 K, w2 = 0.0234	1103.4	–	–
[1], 313.15 K, w2 = 0.0293	1103.9	–	–
[1], 318.15 K, w2 = 0.0081	1099.2	–	43.7
[1], 318.15 K, w2 = 0.0091	–	–	43.9
[1], 318.15 K, w2 = 0.0102	–	–	44.1
[1], 318.15 K, w2 = 0.0118	–	–	44.4
[1], 318.15 K, w2 = 0.0129	1099.5	–	–
[1], 318.15 K, w2 = 0.0131	–	–	44.6
[1], 318.15 K, w2 = 0.018	1099.9	–	–
[1], 318.15 K, w2 = 0.0234	1100.3	–	–
[1], 318.15 K, w2 = 0.0293	1100.7	–	–
[1], 323.15 K, w2 = 0.0081	1096.1	–	43.3
[1], 323.15 K, w2 = 0.0091	–	–	43.5
[1], 323.15 K, w2 = 0.0102	–	–	43.7
[1], 323.15 K, w2 = 0.0118	–	–	44
[1], 323.15 K, w2 = 0.0129	1096.4	–	–
[1], 323.15 K, w2 = 0.0131	–	–	44.2
[1], 323.15 K, w2 = 0.018	1096.8	–	–
[1], 323.15 K, w2 = 0.0234	1097.2	–	–
[1], 323.15 K, w2 = 0.0293	1097.6	–	–
[1], 328.15 K, w2 = 0.0081	1092.9	–	42.9
[1], 328.15 K, w2 = 0.0091	–	–	43.1
[1], 328.15 K, w2 = 0.0102	–	–	43.3
[1], 328.15 K, w2 = 0.0118	–	–	43.5
[1], 328.15 K, w2 = 0.0129	1093.2	–	–
[1], 328.15 K, w2 = 0.0131	–	–	43.8
[1], 328.15 K, w2 = 0.018	1093.6	–	–
[1], 328.15 K, w2 = 0.0234	1094	–	–
[1], 328.15 K, w2 = 0.0293	1094.4	–	–
[2], 293.15 K, w2 = 0.0081	–	1.4993	–
[2], 293.15 K, w2 = 0.0102	–	1.4968	–
[2], 293.15 K, w2 = 0.0121	–	1.4944	–
[2], 293.15 K, w2 = 0.014	–	1.4918	–
[2], 293.15 K, w2 = 0.0161	–	1.4896	–
[2], 298.15 K, w2 = 0.0081	–	1.4982	–
[2], 298.15 K, w2 = 0.0102	–	1.4954	–
[2], 298.15 K, w2 = 0.0121	–	1.4928	–
[2], 298.15 K, w2 = 0.014	–	1.4907	–
[2], 298.15 K, w2 = 0.0161	–	1.4879	–
[2], 303.15 K, w2 = 0.0081	–	1.497	–
[2], 303.15 K, w2 = 0.0102	–	1.4941	–
[2], 303.15 K, w2 = 0.0121	–	1.4916	–
[2], 303.15 K, w2 = 0.014	–	1.4895	–
[2], 303.15 K, w2 = 0.0161	–	1.4869	–
[2], 308.15 K, w2 = 0.0081	–	1.4955	–
[2], 308.15 K, w2 = 0.0102	–	1.4927	–
[2], 308.15 K, w2 = 0.0121	–	1.4907	–
[2], 308.15 K, w2 = 0.014	–	1.4884	–
[2], 308.15 K, w2 = 0.0161	–	1.4858	–
[2], 313.15 K, w2 = 0.0081	–	1.4943	–
[2], 313.15 K, w2 = 0.0102	–	1.4915	–
[2], 313.15 K, w2 = 0.0121	–	1.4893	–
[2], 313.15 K, w2 = 0.014	–	1.4872	–
[2], 313.15 K, w2 = 0.0161	–	1.4845	–
[2], 318.15 K, w2 = 0.0081	–	1.4931	–
[2], 318.15 K, w2 = 0.0102	–	1.4904	–
[2], 318.15 K, w2 = 0.0121	–	1.4879	–
[2], 318.15 K, w2 = 0.014	–	1.4855	–
[2], 318.15 K, w2 = 0.0161	–	1.4832	–
[2], 323.15 K, w2 = 0.0081	–	1.4917	–
[2], 323.15 K, w2 = 0.0102	–	1.4888	–
[2], 323.15 K, w2 = 0.0121	–	1.4864	–
[2], 323.15 K, w2 = 0.014	–	1.4838	–
[2], 323.15 K, w2 = 0.0161	–	1.4814	–
